The results in this text go back to patent US7153858B2, “Arylpiperazinyl compounds” (Epix Delaware, Inc., priority 2003, dated 2006).

Assay type in all cases: in vivo
One assay deals with C57B16/J mice. Put plainly: Elevated Plus Maze (EPM). As to conditions: for Closed Arm Entries / Total Entries / Open Arm Time / Proportion Open Arm Entries: vs vehicle. The text has this:
(§1) Young adult male C57B16/J mice from Jackson Laboratory, Bar Harbor, Me. were used in the Elevated Plus Maze; 129 svev mice from Taconic, Germantown, N.Y. were used in the Stress-induced Hyperthermia, Open Field, and the Tail Suspension tests, and DBA/2J mice from Jackson Laboratory, Bar Harbor, Me. were used in the Forced Swim test. All mice were received at the age of 6 weeks and were assigned unique identification numbers. Animals were housed 4 per cage in polycarbonate cages with filter tops, cagemate identification maintained by tail marks. Animals were acclimated for 7 days and given food and water ad libitum. Mice were examined prior to initiation of the study at 8 weeks of age to assure adequate health and suitability. During the course of the study, 12-hour light/12-hour dark cycles were maintained with the light on at 7:00 a.m. The room temperature was maintained between 20 and 23° C. with a relative humidity maintained between 30% and 70%. Chow and water were provided ad libitum.
(§2) In each test, animals were randomly assigned across treatment groups and balanced by cage number. Ten animals were used in each treatment group. Mice for the Open Field and Stress-induced hyperthermia studies were handled once daily for 2 consecutive days prior to the testing. Mice assigned to the Elevated plus maze experiment were not handled to increase the stress level at the time of the testing.
(§3) All compounds were dissolved in sterile injectable water, which served as the vehicle control. All solutions were prepared on the day of the experiments. […] In all tests except for the tail suspension (TS) test, drugs were administered acutely; in the TS test, Compound A was administered once daily for 3 days (test day inclusive) prior to testing. Thirty minutes pretreatment time was used in all tests except for SIH in which case compounds were given to the animals one hr before the test.
The elevated plus maze is a test commonly used to assess anxiety in rodents. The maze consists of two closed arms (l×w×h: 15 cm×6 cm×30 cm) and two open arms (6 cm w×30 cm l) forming a cross, with a square center platform (6×6 cm). Rodents naturally fear open spaces and tend to spend more time in the closed arms. Anxiolytics will attenuate this fear of open spaces and will increase the number of time spent in open arms. All visible surfaces are made of a black acrylic. Each arm of the maze is placed on a support column 50 cm above the floor. The light intensity was ˜100 lux above the open arms and ˜70 lux above the closed arms. Animals were brought to the experimental room at least 1 hr before the test in the home cage (food and water available). Mice were placed in the center of the elevated plus maze facing an open arm, tested once, one at a time for a 5 min test. The time in the open/closed arms and the number of entries in the open/closed arms were recorded via video camera and used as a measure of anxiety. Mice were returned to the home cage after testing and then to the colony room.
(§4) All data were analyzed by comparing the groups treated with the test substance to the vehicle control or reference treated groups. Statistical analysis was performed by ANOVA followed by Fisher's post-hoc test where appropriate. […] Data are represented as the means and standard error to the mean (s.e.m).

Assay [1] has as its system 129 svev mice. Put plainly: Stress-Induced Hyperthermia (SIH). As to conditions: 1 hr before test.
From the text: as §1, §2, §3
Mice have a natural hyperthermic response to stress, which has been proposed as a measure of stress-induced anxiety (Olivier, Zethof, Ronken & van der Heyden, European Journal of Pharmacology 342(2–3): 177–82, 1998). Anxiolytics are known to decrease this hyperthermic response to stress. This test involves two measures of rectal temperature repeated in the same animal within a 10 min period. On the day prior to testing, animals were brought to the experimental room 1 hr prior to scheduled lights out and singly housed overnight with food and water ad libitum. On the morning of the experiment, animals were first injected with treatment compound or vehicle. One hr post treatment, the animal was removed from the holding cage and held in a supine position and had rectal temperature measured by using a rectal probe attached to a PhysiTemp thermometer (Fisher Scientific). For each animal tested, the rectal probe was cleaned with an alcohol pad and lubricated with sterile K-Y jelly and slowly inserted into the animal's rectum at a length of approximately 3–5 mm. The probe remained within the animal's rectum for approximately 5 sec or until body temperature reached stability, and the baseline rectal temperature (T1) was recorded. The animal was immediately placed back to the holding cage and after a 10-min interval a second rectal temperature (T2) was taken using the same procedure as T1. The animal was then returned to the home cage and at the completion of the experiment returned to the colony room.
as §4

The test system of assay [2] is 129 svev mice. Put plainly: Open Field (OF), general motor activity. As to conditions: 40 min session.
From the text: as §1, §2, §3
The open field activity monitor system (Med Associates, Inc.) measured general motor activity. The test was performed under normal lighting conditions (400 lux). Mice were brought into the experimental room and allowed at least 1 hr of acclimation. Thirty min after treatment, each mouse was placed into the testing enclosure (l×w×h: 27 cm×27 cm×20 cm) with an infrared beam array that automatically monitors the animal's activity. Eight animals of balanced treatment were tested at one time. The test session lasted 40 min and animals were returned to the home cages at the end of the session. The critical measures of this test includes locomotion (total distance traveled), rearing (vertical activity), number of center entries and percent time spent in the center area of the OF arena.
as §4

For another assay, the system named is Coloboma mice. Put plainly: Open Field, hyperlocomotor activity of Coloboma mutant mice (ADHD model). The conditions noted are these: vs vehicle. The text has this: The mice used in the current study are the offspring of breeding pairs (C3H/HeSnj-Cm) originally purchased from Jackson Laboratory, Bar Harbor, Me. Of the 48 mice tested, 22 were male and 26 were female, at age between 12–20 weeks old. These animals were weaned at 21 days age and were housed in 2 to 4 littermates per cage in our animal facility where standard animal husbandry was maintained. The colony room was kept under 12-hour light/12-hour dark cycles with the lights on at 7:00 a.m. Temperature was maintained between 20 and 23° C. with a relative humidity maintained between 30% and 70%. Animals received food chow and water provided ad libitum.
All compounds were dissolved in sterile injectable water, which served as the vehicle control. All solutions were prepared on the day of the experiments. Compound A as well as its vehicle (water) was given to animals orally (PO) in a volume of 10 ml/kg body weight; the reference compound was given to animals intraperitoneally (IP). […]
The study was conducted over two consecutive days with animals tested between 10:00 a.m. and 5:00 p.m. on each day. […] The results were recorded automatically and processed by microcomputer.
The open field activity monitor system (Med Associates, Inc.) measured general motor activity. […]
All data were analyzed by comparing the groups treated with the test substance to the vehicle control or reference treated groups. […]

Assay [3] relates to 129 svev mice (tail suspension), DBA/2J mice (forced swim). Put plainly: Tail suspension and forced swim test. The conditions noted are these: PO; tail suspension: once daily for 3 days.
From the text: as §1
All compounds were dissolved in sterile injectable water, which served as the vehicle control. All solutions were prepared on the day of the experiments. […] In all tests except for the tail suspension (TS) test, drugs were administered acutely; in the TS test, Compound A was administered once daily for 3 days (test day inclusive) prior to testing. […]

[4] abbreviates: reference buspirone 3, 10 and 20 mg/kg PO.
Where [5] appears, read: reference buspirone 20 mg/kg IP.
Setting [6] is: reference buspirone 20 mg/kg IP, listed as buspirone.

The structures appear in SMILES notation. Entries after “also recorded” stand apart in the source; their conditions may differ. Structures can show the parent of a compound that is named as a salt.

With `O=C1CC2(CCCC2)CC(=O)N1CCCCN1CCN(c2ncccn2)CC1` [Buspirone, reference compound], in the assay on C57B16/J mice (20 mg/kg PO), the “Closed Arm Entries” value was “significantly decreased” and the “Total Entries” value was “significant decrease”. Further, in the assay with C57B16/J mice (20 mg/kg PO, listed as BUS), the “Closed Arm Entries” value was “decrease (BUS, 20)” and the “Total Entries” value is on record as “decrease (BUS, 20)”. For the same compound, in the assay with C57B16/J mice (setting [4]), the “anxiolytic-like effect in the EPM” value is reported as “failed to produce a significant anxiolytic-like effect” and the “Open Arm Time” value is “no effect”. In the assay with 129 svev mice [1] (setting [5]), the “Basal Rectal Temperature” value is “decrease” and the “Temperature Change (stress-induced hyperthermia)” value (shortened to “Temperature Change”) is listed as “decrease”. For the same compound, in the assay on 129 svev mice [1] (setting [6]), the “Basal Rectal Temperature” value is given as “significantly decreased” and the “Temperature Change” value is reported as “significantly decreased”. In the assay with 129 svev mice [2] (reference buspirone PO), the “Frequency of Zone Crosses” value is on record as “no change”, the “Percent Distance in Center” value was “no change”, the “Percent Time in Center” value is recorded as “no change” and the “Total Distance (Horizontal)” value was “no change”. Further, the “Vertical Activity (Rearing)” value in the assay with 129 svev mice [2] (reference buspirone PO) is “decreased the number of rears; also recorded: decrease”.
Turning to `C[C@H](N)Cc1ccccc1` [d-Amphetamine, reference compound], the “locomotor activity (Distance Traveled)” value with Coloboma mice (4 mg/kg IP, 15 min before the test) was “significantly decreased”.
As to `CC(=O)Nc1cccc(N2CCN(CCCCNS(=O)(=O)CC3CCCCC3)CC2)c1` [Compound A, N-{3-[4-(4-Cyclohexylmethanesulfonylamino-butyl)-piperazin-1-yl]-phenyl}-acetamide HCl], the “Closed Arm Entries” value in the assay with C57B16/J mice (3 mg/kg PO), in the assay with C57B16/J mice (10 mg/kg PO) and with C57B16/J mice (20 mg/kg PO) was “no change” each time. Further, the “Total Entries” value in the assay with C57B16/J mice (3 mg/kg PO), in the assay on C57B16/J mice (10 mg/kg PO) and in the assay on C57B16/J mice (20 mg/kg PO) was “no change” each time. The “Open Arm Time” value with C57B16/J mice (3 mg/kg PO, HCl) is “significant anxiolytic-like effect; also recorded: increase”; in the assay with C57B16/J mice (10 mg/kg PO, HCl), “did not reach statistical significance; also recorded: no change”; in the assay on C57B16/J mice (20 mg/kg PO, HCl), “did not reach statistical significance; also recorded: no change”. Further, the “Proportion Open Arm Entries” value in the assay with C57B16/J mice (3 mg/kg PO, HCl) is “significant anxiolytic-like effect; also recorded: increase”; with C57B16/J mice (10 mg/kg PO, HCl), “did not reach statistical significance; also recorded: no change”; in the assay with C57B16/J mice (20 mg/kg PO, HCl) it was “did not reach statistical significance; also recorded: no change”. Also, the “Basal Rectal Temperature” value with 129 svev mice [1] (1 mg/kg PO, HCl) is reported as “did not show significant effects; also recorded: no change”; in the assay on 129 svev mice [1] (3 mg/kg PO, HCl), “did not show significant effects; also recorded: no change”; in the assay with 129 svev mice [1] (20 mg/kg PO, HCl), “significant decrease”. Further, the “Temperature Change” value is recorded as “did not show significant effects; also recorded: no change” in the assay on 129 svev mice [1] (1 mg/kg PO, HCl); “did not show significant effects; also recorded: no change” with 129 svev mice [1] (3 mg/kg PO, HCl); “significant decrease” in the assay on 129 svev mice [1] (20 mg/kg PO, HCl). The “Frequency of Zone Crosses” value is given as “No change” in the assay with 129 svev mice [2] (1 mg/kg PO), “no change” in the assay on 129 svev mice [2] (3 mg/kg PO) and “no change” with 129 svev mice [2] (20 mg/kg PO). Further, the “Percent Distance in Center” value was “No change” in the assay on 129 svev mice [2] (1 mg/kg PO), “no change” with 129 svev mice [2] (3 mg/kg PO) and “no change” in the assay with 129 svev mice [2] (20 mg/kg PO). For the same compound, the “Percent Time in Center” value is “No change” with 129 svev mice [2] (1 mg/kg PO), “no change” with 129 svev mice [2] (3 mg/kg PO) and “no change” in the assay with 129 svev mice [2] (20 mg/kg PO). Besides, the “Total Distance (Horizontal)” value is “No change” in the assay with 129 svev mice [2] (1 mg/kg PO), “no change” in the assay with 129 svev mice [2] (3 mg/kg PO) and “no change” in the assay with 129 svev mice [2] (20 mg/kg PO). The “Vertical Activity (Rearing)” value in the assay with 129 svev mice [2] (1 mg/kg PO) is reported as “No change”; with 129 svev mice [2] (3 mg/kg PO), “no change”; with 129 svev mice [2] (20 mg/kg PO) it was “no change”. Also, the “hyperlocomotor activity (Distance Traveled)” value in the assay on Coloboma mice (doses of 1 and 20 mg/kg PO, 30 min pretreatment) is listed as “decreased the hyperlocomotor activity”. In addition, the antidepressive properties result in assay [3] is listed as “did not appear to have antidepressive properties”.
